In the test the target is T1, human PD-1 / PD-L1-Ig binding on Jurkat cell line over-expressing human PD-1 (Jurkat-PD-1) (Homo sapiens, UniProt Q15116).
T1 construct: expressed in transfected cells; host or cells: Jurkat
The experiment in a line: Jurkat-PD-1 Cell Binding High-Content Screening Assay (CBA). The settings on record: PE-labeled PD-L1-Ig 20 nM final. Type of test: cell-based. The essentials: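 Binding of fluorescent PD-L1-Ig (phycoerythrin linked via the Ig tag, 20 nM final) to PD-1-overexpressing Jurkat cells was imaged after a 2 h, 37° C compound pretreatment and 1 hour ligand incubation.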

The mark [1] stands for this setting: Jurkat-PD-1 cells, read-out: Jurkat HPD1_PDL1 IC50.

Read-outs that look alike come from different tables or passages of the source. Where a SMILES comes first, the peptide text is derived from it. Bridges are numbered along the chain shown (N, C = ends). [ ]: non-standard residue; d: D form. The star is where a group is joined. ξ: configuration not given here. Phe(3-CF3) = N[C@@H](Cc1cccc(C(F)(F)F)c1)C(=O)O; Ala(morpholin-4-yl) = N[C@@H](CN1CCOCC1)C(=O)O; Phe(4-COOH) = N[C@@H](Cc1ccc(C(=O)O)cc1)C(=O)O; Tyr(Ph) = N[C@@H](Cc1ccc(Oc2ccccc2)cc1)C(=O)O; Bip = N[C@@H](Cc1ccc(-c2ccccc2)cc1)C(=O)O; Phe(3-Me) = Cc1cccc(C[C@H](N)C(=O)O)c1; Val(3-OH) = CC(C)(O)[C@H](N)C(=O)O; 4Pal = N[C@@H](Cc1ccncc1)C(=O)O; Cha = N[C@@H](CC1CCCCC1)C(=O)O; Cit = NC(=O)NCCC[C@H](N)C(=O)O; Ile(3ξ) = CCC(C)[C@H](N)C(=O)O; dCha = N[C@H](CC1CCCCC1)C(=O)O; Thr(3ξ) = CC(O)[C@H](N)C(=O)O; Carboxymethyl = O=C(O)C*; Nle = CCCC[C@H](N)C(=O)O; Orn = NCCC[C@H](N)C(=O)O; Pra = C#CC[C@H](N)C(=O)O; Dab = NCC[C@H](N)C(=O)O; Dap = NC[C@H](N)C(=O)O; Ac3c = NC1(C(=O)O)CC1; ξOrn = NCCCC(N)C(=O)O

T1 sequence (Q15116 25-288): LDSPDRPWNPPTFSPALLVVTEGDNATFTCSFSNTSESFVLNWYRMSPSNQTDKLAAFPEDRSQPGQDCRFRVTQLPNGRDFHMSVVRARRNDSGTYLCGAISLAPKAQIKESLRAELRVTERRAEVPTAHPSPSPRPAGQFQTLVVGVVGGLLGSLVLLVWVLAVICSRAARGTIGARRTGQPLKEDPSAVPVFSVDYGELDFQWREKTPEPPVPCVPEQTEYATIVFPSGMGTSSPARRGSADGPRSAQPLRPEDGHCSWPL

With `Cc1cccc(C[C@@H]2NC(=O)[C@H](CC(=O)O)NC(=O)[C@H](Cc3ccc(OCC(=O)O)cc3)NC(=O)[C@H](CN)NC(=O)CSC[C@@H](C(=O)N[C@@H](CCN)C(N)=O)NC(=O)C(CCCN)NC(=O)[C@H](C(C)C)NC(=O)[C@H](CC3CCCCC3)NC(=O)[C@H](CCN)NC(=O)[C@@H](CC(C)C)NC(=O)[C@H](CCCN)NC(=O)[C@H](Cc3ccc(O)cc3)NC(=O)[C@H](Cc3ccc(-c4ccccc4)cc3)NC(=O)[C@H](Cc3ccc(O)cc3)NC2=O)c1` (stereo partly drawn) [Compound 2256] ({CH2CO}-[Dap]Y(Carboxymethyl)D[Phe(3-Me)]Y[Bip]Y[Orn][dL][Dab][Cha]V[ξOrn]C[Dab]-NH2; thioether N-14), the half-maximal inhibitory concentration (IC50) under setting [1] was 4.9 nM.

`Cc1cccc(C[C@@H]2NC(=O)[C@H](CC(=O)O)NC(=O)[C@H](Cc3ccc(OCC(=O)O)cc3)NC(=O)[C@H](Cc3ccc(OCC(=O)O)cc3)NC(=O)CSC[C@@H](C(=O)N[C@@H](C)C(N)=O)NC(=O)[C@H]([C@@H](C)O)NC(=O)[C@H](C(C)C)NC(=O)[C@H](CC(C)C)NC(=O)[C@H](CCN)NC(=O)[C@@H](CC(C)C)NC(=O)[C@H](CCCN)NC(=O)[C@H](C(C)C)NC(=O)[C@H](Cc3ccc(-c4ccccc4)cc3)NC(=O)[C@H](C(C)C)NC2=O)c1` [Compound 1220] ({CH2CO}-Y(Carboxymethyl)Y(Carboxymethyl)D[Phe(3-Me)]V[Bip]V[Orn][dL][Dab]LVTCA-NH2; thioether N-14): the IC50 under setting [1] is 5.1 nM.

On to `CC(C)C[C@H]1NC(=O)[C@H](CCCN)NC(=O)[C@H](Cc2ccc(C(=O)O)cc2)NC(=O)[C@H](Cc2ccc(-c3ccccc3)cc2)NC(=O)[C@H](Cc2ccc(Oc3ccccc3)cc2)NC(=O)[C@H](Cc2cccc(C(F)(F)F)c2)NC(=O)[C@H](CC(=O)O)NC(=O)[C@H](Cc2ccc(C(=O)O)cc2)NC(=O)[C@H](CN2CCOCC2)NC(=O)CSC[C@@H](C(=O)N[C@@H](CCN)C(N)=O)NC(=O)[C@H](CCC(=O)O)NC(=O)[C@H](C(C)C)NC(=O)[C@H](CC2CCCCC2)NC(=O)[C@H](CCN)NC1=O` [Example 2730] ({CH2CO}-[Ala(morpholin-4-yl)][Phe(4-COOH)]D[Phe(3-CF3)][Tyr(Ph)][Bip][Phe(4-COOH)][Orn][dL][Dab][Cha]VEC[Dab]-NH2; thioether N-14), for which, under setting [1], the 50% inhibitory concentration (IC50) came to 94 nM. `CC(C)[C@@H]1NC(=O)[C@H](Cc2c[nH]c3ccccc23)NC(=O)[C@H](CC(=O)O)NC(=O)[C@H](Cc2ccncc2)NC(=O)[C@H](Cc2ccc(OCC(=O)O)cc2)NC(=O)CSC[C@@H](C(=O)N[C@@H](C)C(N)=O)NC(=O)[C@H]([C@@H](C)O)NC(=O)[C@H](C(C)C)NC(=O)[C@H](CC2CCCCC2)NC(=O)[C@H](CCN)NC(=O)[C@@H](CC2CCCCC2)NC(=O)[C@H](CCCN)NC(=O)[C@H](CCCNC(N)=O)NC(=O)[C@H](Cc2ccc(-c3ccccc3)cc2)NC1=O` [Compound 1645] ({CH2CO}-Y(Carboxymethyl)[4Pal]DWV[Bip][Cit][Orn][dCha][Dab][Cha]VTCA-NH2; thioether N-14): under setting [1], the IC50 turned out to be 20.3 nM.

In the case of `Cc1cccc(C[C@@H]2NC(=O)[C@H](CC(=O)O)NC(=O)[C@H](Cc3ccc(OCC(=O)O)cc3)NC(=O)[C@H](Cc3ccncc3)NC(=O)CSC[C@@H](C(=O)N[C@@H](CCN)C(N)=O)NC(=O)[C@H](CO)NC(=O)[C@H](C(C)(C)O)NC(=O)[C@H](CC3CCCCC3)NC(=O)[C@H](CCN)NC(=O)[C@@H](CC(C)C)NC(=O)C3(CC3)NC(=O)[C@H](Cc3ccc(OCC(=O)O)cc3)NC(=O)[C@H](Cc3ccc(-c4ccccc4)cc3)NC(=O)[C@H](Cc3ccc(OCC(=O)O)cc3)NC2=O)c1` [Compound 2082] ({CH2CO}-[4Pal]Y(Carboxymethyl)D[Phe(3-Me)]Y(Carboxymethyl)[Bip]Y(Carboxymethyl)[Ac3c][dL][Dab][Cha][Val(3-OH)]SC[Dab]-NH2; thioether N-14), the IC50 under setting [1] was 111 nM. Take `Cc1cccc(C[C@@H]2NC(=O)[C@H](CC(N)=O)NC(=O)[C@H](Cc3ccc(OCC(=O)O)cc3)NC(=O)[C@H](CN3CCOCC3)NC(=O)CSC[C@@H](C(=O)N[C@@H](CCN)C(N)=O)NC(=O)[C@H](CCCN)NC(=O)[C@H](C(C)C)NC(=O)[C@H](CC3CCCCC3)NC(=O)[C@H](CCN)NC(=O)[C@@H](CC(C)C)NC(=O)[C@H](CCCN)NC(=O)[C@H](CCCN)NC(=O)[C@H](Cc3ccc(-c4ccccc4)cc3)NC(=O)[C@H](Cc3ccc(C(=O)O)cc3)NC2=O)c1` [Example 2725] ({CH2CO}-[Ala(morpholin-4-yl)]Y(Carboxymethyl)N[Phe(3-Me)][Phe(4-COOH)][Bip][Orn][Orn][dL][Dab][Cha]V[Orn]C[Dab]-NH2; thioether N-14): the IC50 under setting [1] amounted to 48.1 nM. As for `CCCC[C@@H]1NC(=O)[C@H](CC(N)=O)NC(=O)[C@@H](CC(C)C)NC(=O)[C@H](CN)NC(=O)[C@H](C(C)C)NC(=O)[C@H](Cc2ccc(-c3ccccc3)cc2)NC(=O)[C@H](CC(C)C)NC(=O)[C@H](Cc2c[nH]c3ccccc23)NC(=O)[C@H](CC(=O)O)NC(=O)[C@H](Cc2ccc(C(=O)O)cc2)NC(=O)[C@H](Cc2ccc(OCC(=O)O)cc2)NC(=O)CSC[C@@H](C(=O)NCC(N)=O)NC(=O)[C@H](CO)NC(=O)[C@H](C(C)C)NC1=O` [Compound 1398] ({CH2CO}-Y(Carboxymethyl)[Phe(4-COOH)]DWL[Bip]V[Dap][dL]N[Nle]VSCG-NH2; thioether N-14), the half-inhibitory concentration (IC50) under setting [1] came out at 23.7 nM. Consider `CCC(C)[C@@H]1NC(=O)[C@H](Cc2ccc(-c3ccccc3)cc2)NC(=O)[C@H](CC(C)C)NC(=O)[C@H](Cc2cccc(C)c2)NC(=O)[C@H](CC(=O)O)NC(=O)[C@H](Cc2ccc(C(=O)O)cc2)NC(=O)[C@H](Cc2ccncc2)NC(=O)CSC[C@@H](C(=O)N[C@H](C)C(N)=O)NC(=O)[C@H](C(C)O)NC(=O)[C@H](C(C)C)NC(=O)[C@H](CC2CCCCC2)NC(=O)[C@H](CCN)NC(=O)[C@@H](CC(C)C)NC(=O)[C@H](Cc2cnc[nH]2)NC1=O` (stereo partly drawn) [Compound 2611] ({CH2CO}-[4Pal][Phe(4-COOH)]D[Phe(3-Me)]L[Bip][Ile(3ξ)]H[dL][Dab][Cha]V[Thr(3ξ)]C[dA]-NH2; thioether N-14), for which the IC50 (Jurkat HPD1_PDL1 IC50, Jurkat-PD-1 cells) turned out to be 19.2 nM. Consider `C#CC[C@H](NC(=O)[C@H](CCN)NC(=O)[C@@H]1CSCC(=O)N[C@@H](CCCN)C(=O)N[C@@H](Cc2ccc(C(=O)O)cc2)C(=O)N[C@@H](CC(=O)O)C(=O)N[C@@H](Cc2cccc(C)c2)C(=O)N[C@@H](Cc2ccc(C(=O)O)cc2)C(=O)N[C@@H](Cc2ccc(-c3ccccc3)cc2)C(=O)N[C@@H](Cc2ccc(C(=O)O)cc2)C(=O)N[C@@H](CCCN)C(=O)N[C@H](CC(C)C)C(=O)N[C@@H](CCN)C(=O)N[C@@H](CC2CCCCC2)C(=O)N[C@@H](C(C)(C)O)C(=O)N[C@@H](Cc2cnc[nH]2)C(=O)N1)C(N)=O` [Compound 1857] ({CH2CO}-[Orn][Phe(4-COOH)]D[Phe(3-Me)][Phe(4-COOH)][Bip][Phe(4-COOH)][Orn][dL][Dab][Cha][Val(3-OH)]HC[Dab][Pra]-NH2; thioether N-14), for which the IC50 under setting [1] is 7.4 nM. Turning to `CC(C)C[C@@H]1NC(=O)[C@H](CCN)NC(=O)[C@@H](CC(C)C)NC(=O)[C@H](CCN)NC(=O)[C@H](C(C)C)NC(=O)[C@H](Cc2ccc(-c3ccccc3)cc2)NC(=O)[C@H](C(C)C)NC(=O)[C@H](Cc2c[nH]c3ccccc23)NC(=O)[C@H](CC(N)=O)NC(=O)[C@H](Cc2ccc(O)cc2)NC(=O)[C@H](CC(N)=O)NC(=O)CSC[C@@H](C(=O)NCC(N)=O)NC(=O)[C@H](CO)NC(=O)[C@H](C(C)C)NC1=O` [Compound 1083] ({CH2CO}-NYNWV[Bip]V[Dab][dL][Dab]LVSCG-NH2; thioether N-14), the IC50 under setting [1] came out at 16.8 nM.

(Values after patent US20250163104A1, “MACROCYCLIC IMMUNOMODULATORS” (priority 2021, published 2025).)
